Source: BindingDB's records for doi:10.1016/s0960-894x(99)00014-1 (Zeria Pharmaceutical, 1999)

Assay: In vitro thromboxane A2 antagonistic activity on aggregation of rabbit platelets induced by U-46,619 (4 uM)

First: O=C(O)Cc1ccc2c(c1)CC(CNS(=O)(=O)c1cccnc1)C2 (stereo unspecified) [Sodium; {2-[(pyridine-3-sulfonylamino)-methyl]-indan-5-yl}-acetate]
Second: O=C(O)Cc1ccc2c(c1)CC(CNS(=O)(=O)c1ccccc1)C2 (stereo unspecified) [Sodium; [2-(benzenesulfonylamino-methyl)-indan-5-yl]-acetate]
The IC50 of the first is higher: > 100000 nM for the first, 1020 nM for the second. The second is the more potent here.

Going from `O=C(O)Cc1ccc2c(c1)CC(CCCCNS(=O)(=O)c1ccc(Cl)cc1)C2` (stereo unspecified) [Sodium; {2-[4-(4-chloro-benzenesulfonylamino)-butyl]-indan-5-yl}-acetate] to `O=C(O)Cc1ccc2c(c1)CC(CCCNS(=O)(=O)c1ccc(Cl)cc1)C2` (stereo unspecified) [Sodium; {2-[3-(4-chloro-benzenesulfonylamino)-propyl]-indan-5-yl}-acetate], the IC50 falls from > 100000 nM to 72300 nM.

Compared with `O=C(O)Cc1ccc2c(c1)CC(CNS(=O)(=O)c1ccc(Cl)cc1)C2` (stereo unspecified) [Sodium; {2-[(4-chloro-benzenesulfonylamino)-methyl]-indan-5-yl}-acetate], `O=C(O)Cc1ccc2c(c1)CC(CCNS(=O)(=O)c1ccc(Cl)cc1)C2` (stereo unspecified) [Sodium; {2-[2-(4-chloro-benzenesulfonylamino)-ethyl]-indan-5-yl}-acetate] is 4.1-fold higher in IC50: 360 nM for the first, 1480 nM for the second.

`O=C(O)Cc1ccc2c(c1)CC(CNS(=O)(=O)c1ccc(Cl)cc1)O2` (stereo unspecified) [Sodium; {2-[(4-chloro-benzenesulfonylamino)-methyl]-2,3-dihydro-benzofuran-5-yl}-acetate] and `O=C(O)Cc1ccc2c(c1)CC(NS(=O)(=O)c1ccc(Cl)cc1)C2` (stereo unspecified) [Sodium; [2-(4-chloro-benzenesulfonylamino)-indan-5-yl]-acetate] are within 1.5-fold of each other in IC50: 320 nM for the first, 360 nM for the second.

Compared with `O=C(O)Cc1ccc2c(c1)CC(CNS(=O)(=O)c1cccc3ccccc13)C2` (stereo unspecified) [Sodium; {2-[(naphthalene-1-sulfonylamino)-methyl]-indan-5-yl}-acetate], `O=C(O)Cc1ccc2c(c1)CC(CNS(=O)(=O)c1ccc3ccccc3c1)C2` (stereo unspecified) [Sodium; {2-[(naphthalene-2-sulfonylamino)-methyl]-indan-5-yl}-acetate] is 50-fold lower in IC50: 47900 nM for the first, 950 nM for the second. The second is the more potent here.

Going from `O=C(O)Cc1ccc2c(c1)CC(CNS(=O)(=O)c1cccs1)C2` (stereo unspecified) [Sodium; {2-[(thiophene-2-sulfonylamino)-methyl]-indan-5-yl}-acetate] to `O=C(O)Cc1ccc2c(c1)CC(CNS(=O)(=O)Cc1ccccc1)C2` (stereo unspecified) [Sodium; [2-(phenylmethanesulfonylamino-methyl)-indan-5-yl]-acetate], the IC50 rises from 2810 nM to > 100000 nM. The first is the more potent here.

`O=C(O)c1ccc2c(c1)CC(CCNS(=O)(=O)c1ccc(Cl)cc1)C2` (stereo unspecified) [Sodium; 2-[2-(4-chloro-benzenesulfonylamino)-ethyl]-indan-5-carboxylate] and `O=C(O)c1ccc2c(c1)CC(CCCNS(=O)(=O)c1ccc(Cl)cc1)C2` (stereo unspecified) [Sodium; 2-[3-(4-chloro-benzenesulfonylamino)-propyl]-indan-5-carboxylate] are within 1.5-fold of each other in IC50: 7760 nM for the first, 6600 nM for the second.

Compared with `O=C(O)c1ccc2c(c1)CC(CCCCNS(=O)(=O)c1ccc(Cl)cc1)C2` (stereo unspecified) [Sodium; 2-[4-(4-chloro-benzenesulfonylamino)-butyl]-indan-5-carboxylate], `O=C(O)c1ccc2c(c1)CC(CNS(=O)(=O)c1ccc(Cl)cc1)C2` (stereo unspecified) [Sodium; 2-[(4-chloro-benzenesulfonylamino)-methyl]-indan-5-carboxylate] is 76-fold lower in IC50: 100000 nM for the first, 1320 nM for the second. The second is the more potent here.

Going from `O=C(O)Cc1ccc2c(c1)CC(CNS(=O)(=O)C1CCCCC1)C2` (stereo unspecified) [Sodium; [2-(cyclohexanesulfonylamino-methyl)-indan-5-yl]-acetate] to `CCCCCS(=O)(=O)NCC1Cc2ccc(CC(=O)O)cc2C1` (stereo unspecified) [Sodium; {2-[(pentane-1-sulfonylamino)-methyl]-indan-5-yl}-acetate], the IC50 rises from 17800 nM to 77600 nM (4.4-fold).

Compared with `O=C(O)CCc1ccc2c(c1)CC(CNS(=O)(=O)c1ccc(Cl)cc1)C2` (stereo unspecified) [Sodium; 3-{2-[(4-chloro-benzenesulfonylamino)-methyl]-indan-5-yl}-propionate], `O=C(O)CCCc1ccc2c(c1)CC(CNS(=O)(=O)c1ccc(Cl)cc1)C2` (stereo unspecified) [Sodium; 4-{2-[(4-chloro-benzenesulfonylamino)-methyl]-indan-5-yl}-butyrate] is 8.4-fold higher in IC50: 160 nM for the first, 1340 nM for the second.

With `O=C(O)CCCCc1ccc2c(c1)CC(CNS(=O)(=O)c1ccc(Cl)cc1)C2` (stereo unspecified) [Sodium; 5-{2-[(4-chloro-benzenesulfonylamino)-methyl]-indan-5-yl}-pentanoate] the IC50 was 2880 nM.
